Consider 3 substances from patent US20070173456A1, “PREPTIN FRAGMENTS AND METHODS OF USE” (Auckland UniServices Limited, priority 2005, published 2007).

Test [1] deals with rat osteoblasts. Kind of test: Osteoblast proliferation, [3H]-thymidine incorporation. It is filed as cell-based. To be noted: versus vehicle control; for proliferation of rat osteoblasts, as measured by thymidine incorporation (FIG. 1): primary fetal rat calvarial osteoblasts, peptide 1×10^−9 M, 20-24 hours; for proliferation of rat osteoblasts, as measured by thymidine incorporation, parallel comparison (FIG. 4): various concentrations, compared in parallel. Here is the method: Osteoblasts were isolated from 20 day fetal rat calvariae as previously described (Cornish et al., American Journal of Physiology—Endocrinology & Metabolism 277: E779-E783, 1999). Briefly, calvariae were dissected aseptically and the frontal and parietal bones are stripped of their periosteum. Only the central portions of the bones, free from suture tissue, were collected. The calvariae were treated twice with phosphate buffered saline (PBS) containing 3 mM EDTA (pH 7.4) for 15 minutes at 37° C. in a shaking water bath. Calvariae were washed once in PBS and treated twice with 3 ml of collagenase (1 mg/ml) for 7 minutes at 37° C. After discarding supernatants from the first two collagenase digestions, calvariae were treated twice with 3 ml collagenase (2 mg/ml) for 30 minutes at 37° C. The supernatants from these third and fourth collagenase digestions were collected, pooled and centrifuged. The pelleted cells were washed in Dulbecco's modified Eagle's medium (DME) with 10% fetal calf serum (FCS), resuspended in DME/10% FCS, and placed in 75 cm^2 flasks. Cells were incubated under 5% CO2 and 95% air at 37° C. Cells were grown to confluence (approximately 5-6 days) and then subcultured.
To set up subcultures, cells were trypsinized in trypsin-EDTA (0.05%/0.53 mM), rinsed in minimal essential medium (MEM) with 5% FCS, resuspended in fresh medium, and seeded at 5×10^4 cells/ml in 24-well plates (0.5 ml cell suspension per well, i.e., 1.4×10^4 cells/cm^2).
To evaluate the proliferative responses of osteoblast cultures in the presence of preptin and various fragments of preptin, subconfluent cell cultures were growth arrested by incubation in MEM/0.1% bovine serum albumin 24 hours prior to addition of test compounds. Cells were cultured in the presence of full-length preptin (preptin 1-34), preptin 1-19, preptin 20-34, or in the absence of preptin compounds (control). Preptin compounds were added to a final concentration of 1×10^−9 M. A pulse of [^3H]-thymidine (1 […]) was added to each sample two hours prior to the end of each experimental incubation. The incubations were terminated 20-24 hours after addition of preptin compounds by washing the cells in MEM containing non-radioactive thymidine, followed by the addition of 10% trichloroacetic acid. The precipitate was washed twice either ethanol:ether (3:1) and the wells were desiccated at room temperature. The residue in each well was redissolved in 2 M KOH at 55° C. for 30 minutes, neutralized with 1 M HCl, and an aliquot was removed to quantitate incorporation of radioactivity in the samples. The results are depicted in FIG. 1. […] The results are representative of at least four independent assays.
On the technique in general: Uptake of a labelled nucleoside into DNA is a usual measure of proliferation.

The test system of test [2] is isolated, perfused rat pancreas. To be noted: infusion into isolated, Buchanan et al. 2001; cited from earlier work.

Consider “Asp Val Ser Thr R1 R2 R3 Val Leu Pro Asp R4 Phe Pro Arg Tyr Pro Val Gly Lys Phe Phe R5 R6 Asp Thr Trp R7 Gln Ser R8 Rg Arg Leu [preptin 1-34, reference compound]”, for which, in test [1], the “proliferation of rat osteoblasts, as measured by thymidine incorporation (FIG. 1)” value (“proliferation of rat osteoblasts … (FIG. 1)” for short) was “stimulated”. Moreover, in test [2], the insulin secretion entry is given as “significant increase in the second phase of secretion”.

For the substance “Asp Val Ser Thr R1 R2 R3 Val Leu Pro Asp R4 Phe Pro Arg Tyr Pro Val Gly [preptin 1-19]”, in test [1], the “proliferation of rat osteoblasts … (FIG. 1)” value is reported as “enhances osteoblast proliferation in vitro, to levels comparable to those stimulated by full-length preptin” and the “proliferation of rat osteoblasts, as measured by thymidine incorporation, parallel comparison (FIG. 4)” value is listed as “significant increase in proliferation at 1×10^−9M”.

“preptin 20-34: a C-terminal fragment of preptin (KFFQYDTWKQSTQRL; Preptin; UniProt P01344 112-126, looked up, fragment) [reference compound]”: in test [1], the “proliferation of rat osteoblasts … (FIG. 1)” value was “No enhancement of osteoblast proliferation was observed” and the “proliferation of rat osteoblasts, as measured by thymidine incorporation, parallel comparison (FIG. 4)” value was “did not stimulate a significant increase in proliferation at any of the concentrations tested”.
